Consider 2 compounds from patent US20090163453A1, “Prevention and Treatment of Gastrointestinal and Bladder Disorders Associated with Chemotherapy or Radiation Therapy Using Active Vitamin D Compounds” (Novacea Inc., priority 2005, published 2009).

The subject of series [1] is patients with androgen independent prostate cancer. The settings on record: human, in vivo. As to the method:
Two hundred fifty patients with androgen independent prostate cancer were enrolled in a randomized placebo controlled trial at 48 centers in the United States and Canada.
The same Taxotere® dose of 36 mg/m^2 body surface area was administered to the patients receiving Taxotere® and placebo or Taxotere® in combination with calcitriol.
Hospitalization for dehydration was more common in those patients receiving Taxotere® and placebo.

Series [2] in a line: Solubility study of calcitriol in each formulation (light microscope). Type of series: physicochemical. The settings on record: each formulation of Table 3; heated to 50° C., cooled to room temperature; highest concentration tested. As to the method: To further assess the formulations of calcitriol, a solubility study was conducted to evaluate the amount of calcitriol soluble in each formulation. Calcitriol concentrations from 0.1 to 0.6 μg calcitriol/mg formulation were prepared by heating the formulations to 50° C. followed by addition of the appropriate mass of calcitriol. The formulations were then allowed to cool to room temperature and the presence of undissolved calcitriol was determined by a light microscope with and without polarizing light. For each formulation, calcitriol was soluble at the highest concentration tested, 0.6 μg calcitriol/mg formulation.

The subject of a further series is patients. The settings on record: administered doses with cisplatin infusions; cited from earlier work.

Some results are limits rather than exact numbers.

In the case of `C=C1/C(=C\C=C2/CCC[C@]3(C)[C@@H]([C@H](C)CCCC(C)(C)O)CC[C@@H]23)C[C@@H](O)C[C@@H]1O` [Calcitriol, 1α,25-hydroxyvitamin D3], the “GI disorders versus Taxotere and placebo” value in series [1] is listed as “fewer GI disorders”. The “Calcitriol soluble in formulation” value in series [2] is ≥ 0.6 μg calcitriol/mg formulation.

With `NCCCNCCSP(=O)(O)O` [WR 2721, S-2-(3-aminopropylamino)ethylphosphorothioic acid], in the series with patients, the “Emesis, percent of patients” value was 48 % of patients and the “Hypotension, percent of patients” value is on record as 7 % of patients.
